In patent publication US11713323B2, “Crystalline forms of therapeutic compounds and uses thereof” (Kala Pharmaceuticals, Inc., priority 2013, dated 2023):

Key:
Format in all cases: physicochemical
[1] = Stability of MPP suspensions of crystalline forms on storage (XRPD profile)
Experimental: To characterize the stability of the resulting crystalline forms of Compound 3, changes in XRPD profiles following long-term storage were determined. An MPP suspension comprising of crystalline Form A was stored at room temperature for 7 weeks, while a second MPP suspension also comprising of crystalline Form A was stored at room temperature for 7 weeks followed by an additional 1.5 weeks of agitation. […] To further test the potential for longer term storage, two additional MPP samples comprising of Form A, which were formulated at pH 5.8 and pH 7.4 by incorporating different buffers in the milling slurry, were stored at room temperature for 8 months and then analyzed by XRPD.
To confirm long-term stability, an MPP suspension of crystalline Form B was stored for 7 weeks at room temperature and then was characterized by XRPD. The results of that analysis are shown in FIG. 5, which provides the XRPD pattern of the original crystalline Form B material in the bottom trace and the XRPD pattern of the material after seven weeks of storage in the top trace.

[2] = Competition between crystalline Forms A and B in mixed nanoparticle suspensions (XRPD); settings: competition with crystalline Form A
Experimental: A suspension of nanoparticles of crystalline Form A was generated as described via wet milling the amorphous material. A suspension of nanoparticles of Form B was generated via wet milling of neat Form B crystals as described. The two suspensions were mixed in 1:1 ratio and incubated at room temperature. After 11 days, an XRPD analysis was performed, which estimated that the ratio of Forms A and B was unchanged in the mixture (not shown). A fraction of the mixture was then stirred using a magnetic stir bar to provide an increased energy input in order to accelerate the outcome of the competition experiment.

[3] = Crystal form stability during wet-milling (XRPD); settings: 5% in 5% F127/DPBS, wet-milled 2 days
Experimental: In accordance to Example 3, mucus-penetrating particles comprising of Crystalline Form B was prepared by wet-milling neat Crystalline Form B. A slurry containing 5% neat crystalline From B of Compound 3 and 5% F127 in DPBS (Dulbecco's Phosphate Buffered Saline) was added to an equal bulk volume of 1-mm ceria-stabilized zirconium oxide beads in a glass vial (e.g. 0.5 mL of slurry for 0.5 mL of beads). A magnetic stir bar was used to agitate the beads, stirring at approximately 500 rpm. The sample was milled for 2 days. Nanoparticles which were approximately 200 nm in diameter (z-averaged), as measured by DLS, were generated.

| Structure (SMILES) | shelf stable as suspensions (XRPD profile of crystalline Form A retained) ([1]; MPP samples formulated at pH 5.8 and pH 7.4, room temperature) | shelf stable in solution (XRPD profile of crystalline Form A retained) ([1]; MPP suspension, room temperature, second sample with additional 1.5 weeks of agitation) | relative stability under the current formulation conditions [2] | crystal form stability during milling (XRPD) [3] | physical stability during storage (XRPD pattern) ([1]; MPP suspension stored 7 weeks at room temperature) |
| --- | --- | --- | --- | --- | --- |
| COc1cc2c(Oc3ccc4[nH]c(C)cc4c3F)ncnc2cc1OCCCN1CCC2(CC1)COC2 [crystalline Form A, 7-(3-(4-(4-fluoro-2-methyl-1H-indol-5-yloxy)-6-methoxyquinazolin-7-yloxy)propyl)-2-oxa-7-azaspiro[3.5] nonane] | at least 8 months | at least 7 weeks | – | – | – |
| COc1cc2c(Oc3ccc4[nH]c(C)cc4c3F)ncnc2cc1OCCCN1CCC2(CC1)COC2 [crystalline Form B, 7-(3-(4-(4-fluoro-2-methyl-1H-indol-5-yloxy)-6-methoxyquinazolin-7-yloxy)propyl)-2-oxa-7-azaspiro[3.5]nonane] | – | – | more stable | remained stable during milling | physically stable during storage |
